What was measured:
[1] = target: T1, Peroxisome proliferator-activated receptor alpha (Homo sapiens, UniProt Q07869); experiment: Agonist activity at Gal4-tagged human PPAR-alpha expressed in HEK cells by transactivation assay; type: cell-based, HEK293
T1 sequence (Q07869 whole entry): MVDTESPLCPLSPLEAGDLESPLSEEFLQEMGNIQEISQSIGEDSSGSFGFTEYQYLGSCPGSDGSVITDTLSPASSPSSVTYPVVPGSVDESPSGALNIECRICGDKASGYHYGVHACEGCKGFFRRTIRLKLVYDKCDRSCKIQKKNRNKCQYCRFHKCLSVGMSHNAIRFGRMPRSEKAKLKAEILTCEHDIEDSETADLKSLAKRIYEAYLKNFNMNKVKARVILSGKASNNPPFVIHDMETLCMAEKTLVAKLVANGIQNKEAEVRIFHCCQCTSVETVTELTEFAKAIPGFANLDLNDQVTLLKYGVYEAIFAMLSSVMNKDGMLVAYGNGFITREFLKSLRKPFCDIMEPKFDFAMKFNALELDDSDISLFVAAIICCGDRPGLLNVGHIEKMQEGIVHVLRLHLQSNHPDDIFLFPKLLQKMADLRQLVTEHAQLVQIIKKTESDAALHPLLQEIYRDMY

[2] = target: T2, Peroxisome proliferator-activated receptor alpha (Homo sapiens) (UniProt Q07869); experiment: Intrinsic activity at PPAR-alpha (unknown origin) relative to fenofibric acid
T2 sequence (whole entry): T1 sequence (Q07869 whole entry)

HEK293 = experiment: Selectivity ratio of EC50 for Gal4-tagged human PPAR-gamma expressed in HEK cells to EC50 for Gal4-tagged human PPAR-alpha expressed in HEK cells; type: cell-based
[3] = target: T3, Peroxisome proliferator-activated receptor gamma (Homo sapiens, UniProt P37231); experiment: Agonist activity at Gal4-tagged human PPAR-gamma expressed in HEK cells by transactivation assay; type: cell-based, HEK293
T3 sequence (P37231 whole entry): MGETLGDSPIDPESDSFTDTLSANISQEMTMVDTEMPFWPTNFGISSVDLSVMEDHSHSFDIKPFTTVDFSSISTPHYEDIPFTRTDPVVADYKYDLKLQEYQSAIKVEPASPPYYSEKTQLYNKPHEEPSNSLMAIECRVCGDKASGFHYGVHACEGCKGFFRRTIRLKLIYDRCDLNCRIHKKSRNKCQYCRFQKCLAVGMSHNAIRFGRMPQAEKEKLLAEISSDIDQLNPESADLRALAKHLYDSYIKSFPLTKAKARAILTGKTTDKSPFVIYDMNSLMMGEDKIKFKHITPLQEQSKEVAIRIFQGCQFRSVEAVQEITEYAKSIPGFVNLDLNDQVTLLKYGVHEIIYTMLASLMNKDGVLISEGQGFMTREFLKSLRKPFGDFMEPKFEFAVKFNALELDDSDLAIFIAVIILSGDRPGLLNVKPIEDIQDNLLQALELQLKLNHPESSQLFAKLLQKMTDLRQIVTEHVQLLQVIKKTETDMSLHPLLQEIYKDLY

[4] = target: T3, Peroxisome proliferator-activated receptor gamma; experiment: Binding affinity to human GST-tagged PPAR-gamma LBD expressed in Escherichia coli BL21 after 30 mins in presence of fluorescein ligand FLA-A by fluorescence polarization assay
[5] = target: T1, Peroxisome proliferator-activated receptor alpha; experiment: Binding affinity to human GST-tagged PPAR-alpha LBD expressed in Escherichia coli BL21 (DE3) PlysS after 30 mins in presence of fluorescein ligand FLA-A by fluorescence polarization assay
Mus musculus [6] = experiment: Increase in HDL cholesterol level in transgenic mouse expressing human ApoA1 at 100 mg/kg administered qd through oral gavage measured after 10 days relative to vehicle control; type: functional
Mus musculus [7] = experiment: Decrease in triglyceride level in transgenic mouse expressing human ApoA1 at 100 mg/kg administered qd through oral gavage measured after 10 days relative to vehicle control; type: functional; set-up: scale not given: the % may be the effect or the level left
Mus musculus [8] = experiment: Increase in ApoA1 level in transgenic mouse expressing human ApoA1 at 100 mg/kg administered qd through oral gavage measured after 10 days relative to vehicle-treated control; type: functional
Syrian golden hamster [9] = experiment: Increase in liver cholesterol level in high fat-diet fed syrian golden hamster model of dyslipidemia at 1 mg/kg administered qd through oral gavage measured after 21 days by FPLC analysis relative to control; type: functional, Mesocricetus auratus
Syrian golden hamster [10] = experiment: Decrease in liver triglyceride level in high fat-diet fed syrian golden hamster model of dyslipidemia at 1 mg/kg administered qd through oral gavage measured after 21 days by FPLC analysis relative to control; type: functional, Mesocricetus auratus; set-up: scale not given: the % may be the effect or the level left
Syrian golden hamster [11] = experiment: Decrease in plasma triglyceride level in high fat-diet fed syrian golden hamster model of dyslipidemia at 3 mg/kg administered qd through oral gavage measured after 21 days by FPLC analysis relative to control; type: functional, Mesocricetus auratus; set-up: scale not given: the % may be the effect or the level left
Syrian golden hamster [12] = experiment: Effect on plasma LDL cholesterol level in high fat-diet fed syrian golden hamster model of dyslipidemia at 1 mg/kg administered qd through oral gavage measured after 21 days by FPLC analysis (reference value: 91.7 +/- 8.1 mg/dl); type: functional, Mesocricetus auratus
Syrian golden hamster [13] = experiment: Decrease in liver cholesterol level in high fat-diet fed syrian golden hamster model of dyslipidemia at 1 mg/kg administered qd through oral gavage measured after 21 days by FPLC analysis relative to control; type: functional, Mesocricetus auratus; set-up: scale not given: the % may be the effect or the level left
Syrian golden hamster [14] = experiment: Decrease in plasma LDL cholesterol level in high fat-diet fed syrian golden hamster model of dyslipidemia at 10 mg/kg administered qd through oral gavage measured after 21 days by FPLC analysis relative to control; type: functional, Mesocricetus auratus; set-up: scale not given: the % may be the effect or the level left
Syrian golden hamster [15] = experiment: Decrease in plasma LDL cholesterol level in high fat-diet fed syrian golden hamster model of dyslipidemia administered qd through oral gavage measured after 21 days by FPLC analysis relative to control; type: functional, organism-based; conditions: Mesocricetus auratus
Syrian golden hamster [16] = experiment: Decrease in liver triglyceride level in high fat-diet fed syrian golden hamster model of dyslipidemia at 3 mg/kg administered qd through oral gavage measured after 21 days by FPLC analysis relative to control; type: functional, Mesocricetus auratus; set-up: scale not given: the % may be the effect or the level left
Syrian golden hamster [17] = experiment: Decrease in liver triglyceride level in high fat-diet fed syrian golden hamster model of dyslipidemia at 10 mg/kg administered qd through oral gavage measured after 21 days by FPLC analysis relative to control; type: functional, Mesocricetus auratus; set-up: scale not given: the % may be the effect or the level left
Syrian golden hamster [18] = experiment: Decrease in liver cholesterol level in high fat-diet fed syrian golden hamster model of dyslipidemia at 10 mg/kg administered qd through oral gavage measured after 21 days by FPLC analysis relative to control; type: functional, Mesocricetus auratus; set-up: scale not given: the % may be the effect or the level left
Syrian golden hamster [19] = experiment: Decrease in plasma triglyceride level in high fat-diet fed syrian golden hamster model of dyslipidemia at 10 mg/kg administered qd through oral gavage measured after 21 days by FPLC analysis relative to control; type: functional, Mesocricetus auratus; set-up: scale not given: the % may be the effect or the level left
Syrian golden hamster [20] = experiment: Decrease in liver cholesterol level in high fat-diet fed syrian golden hamster model of dyslipidemia at 3 mg/kg administered qd through oral gavage measured after 21 days by FPLC analysis relative to control; type: functional, Mesocricetus auratus; set-up: scale not given: the % may be the effect or the level left
Syrian golden hamster [21] = experiment: Decrease in liver triglyceride level in high fat-diet fed syrian golden hamster model of dyslipidemia administered qd through oral gavage measured after 21 days by FPLC analysis; type: functional, organism-based; conditions: Mesocricetus auratus
Syrian golden hamster [22] = experiment: Decrease in plasma triglyceride level in high fat-diet fed syrian golden hamster model of dyslipidemia at 1 mg/kg administered qd through oral gavage measured after 21 days by FPLC analysis relative to control; type: functional, Mesocricetus auratus; set-up: scale not given: the % may be the effect or the level left
Syrian golden hamster [23] = experiment: Decrease in plasma LDL cholesterol level in high fat-diet fed syrian golden hamster model of dyslipidemia at 3 mg/kg administered qd through oral gavage measured after 21 days by FPLC analysis relative to control; type: functional, Mesocricetus auratus; set-up: scale not given: the % may be the effect or the level left

COC(=O)N(CC(=O)O)Cc1cc(OCc2nc(-c3ccccc3)oc2C)ccc1F
EC50 [1]: 59 nM | Intrinsic activity [2]: > 50% | Ratio EC50 (HEK293): 146 | EC50 [3]: 8610 nM

COC(=O)N(CC(=O)O)Cc1cc(OCc2nc(-c3ccc(C)cc3)oc2C)ccc1F
EC50 [1]: 2.8 nM | Intrinsic activity [2]: > 50% | Ratio EC50 (HEK293): 787 | EC50 [3]: 2180 nM

COC(=O)N(CC(=O)O)Cc1cc(OCc2nc(-c3ccc(C(F)(F)F)cc3)oc2C)ccc1F
EC50 [1]: 3.6 nM | Intrinsic activity [2]: > 50% | Ratio EC50 (HEK293): 566 | EC50 [3]: 2060 nM

COC(=O)N(CC(=O)O)Cc1cc(F)cc(OCc2nc(-c3ccc(Cl)cc3)oc2C)c1
EC50 [1]: 18 nM | Intrinsic activity [2]: > 50% | IC50 [4]: > 15000 nM | Ratio EC50 (HEK293): 157 | EC50 [3]: 2820 nM | IC50 [5]: 1340 nM

COC(=O)N(CC(=O)O)Cc1cc(OCc2nc(-c3ccc(S(C)(=O)=O)cc3)oc2C)ccc1F
EC50 [1]: > 2500 nM | Intrinsic activity [2]: > 50% | EC50 [3]: > 25000 nM

CCCOC(=O)N(CC(=O)O)Cc1cc(OCc2nc(-c3ccc(Cl)cc3)oc2C)ccc1F
EC50 [1]: 3.4 nM | Intrinsic activity [2]: > 50% | Ratio EC50 (HEK293): 594 | EC50 [3]: 2010 nM

COC(=O)N(CC(=O)O)Cc1ccc(F)c(OCc2nc(-c3ccc(Cl)cc3)oc2C)c1
EC50 [1]: 94 nM | Intrinsic activity [2]: > 50% | IC50 [4]: > 15000 nM | Ratio EC50 (HEK293): 98 | EC50 [3]: 9170 nM | IC50 [5]: 1560 nM

CC(C)OC(=O)C(C)(C)Oc1ccc(C(=O)c2ccc(Cl)cc2)cc1 [FENOFIBRATE]
Activity (Mus musculus [6]): 88% | Activity (Mus musculus [7]): 32.5% | Activity (Mus musculus [8]): 665%

COC(=O)N(CC(=O)O)[C@@H](C)c1cccc(OCc2nc(-c3ccc(Cl)cc3)oc2C)c1
EC50 [1]: 8.6 nM | Intrinsic activity [2]: > 50% | IC50 [4]: > 15000 nM | Ratio EC50 (HEK293): 332 | EC50 [3]: 2860 nM | IC50 [5]: 671 nM

CCCCOC(=O)N(CC(=O)O)Cc1cc(OCc2nc(-c3ccc(Cl)cc3)oc2C)ccc1F
EC50 [1]: 2.8 nM | Intrinsic activity [2]: > 50% | Ratio EC50 (HEK293): 435 | EC50 [3]: 1240 nM

CCOC(=O)N(CC(=O)O)Cc1cc(OCc2nc(-c3ccc(Cl)cc3)oc2C)ccc1F
EC50 [1]: 4 nM | Intrinsic activity [2]: > 50% | Ratio EC50 (HEK293): 1080 | EC50 [3]: 4270 nM

Cc1ccc(OC(=O)N(CC(=O)O)Cc2cc(OCc3nc(-c4ccc(Cl)cc4)oc3C)ccc2F)cc1
EC50 [1]: 5.6 nM | Intrinsic activity [2]: > 50% | Ratio EC50 (HEK293): 224 | EC50 [3]: 1260 nM

COC(=O)N(CC(=O)O)Cc1cc(OCc2nc(-c3ccc(C(C)(C)C)cc3)oc2C)ccc1F
EC50 [1]: 2.7 nM | Intrinsic activity [2]: > 50% | Ratio EC50 (HEK293): 154 | EC50 [3]: 414 nM

Cc1oc(-c2ccc(Cl)cc2)nc1COc1ccc(F)c(CN(CC(=O)O)C(=O)OCCCF)c1
EC50 [1]: 10.6 nM | Intrinsic activity [2]: > 50% | Ratio EC50 (HEK293): 413 | EC50 [3]: 4380 nM

COC(=O)N(CC(=O)O)Cc1cc(OCc2nc(-c3ccc(OC(F)(F)F)cc3)oc2C)ccc1F
EC50 [1]: 4.3 nM | Intrinsic activity [2]: > 50% | Ratio EC50 (HEK293): 556 | EC50 [3]: 2380 nM

Cc1oc(-c2ccc(Cl)cc2)nc1COc1ccc(F)c(CN(CC(=O)O)C(=O)OCC(C)C)c1
EC50 [1]: 2.3 nM | Intrinsic activity [2]: > 50% | Ratio EC50 (HEK293): 666 | EC50 [3]: 1500 nM

COc1ccc(OC(=O)N(CC(=O)O)Cc2cc(OCc3nc(-c4ccc(Cl)cc4)oc3C)ccc2F)cc1
EC50 [1]: 6.8 nM | Intrinsic activity [2]: > 50% | Ratio EC50 (HEK293): 160 | EC50 [3]: 1090 nM

COC(=O)N(CC(=O)O)Cc1cccc(OCc2nc(-c3ccc(Cl)cc3)oc2C)c1
Activity (Syrian golden hamster [9]): 22% | Activity (Syrian golden hamster [10]): 6% | Activity (Syrian golden hamster [11]): 45% | Activity (Syrian golden hamster [12]): 89.3 mg/dL | Activity (Syrian golden hamster [13]): -22% | Activity (Syrian golden hamster [14]): 60% | Activity (Syrian golden hamster [15]): Dose-dependent effect | Activity (Syrian golden hamster [16]): 17% | Activity (Syrian golden hamster [17]): 23% | Activity (Syrian golden hamster [18]): 40.8% | Activity (Syrian golden hamster [19]): 77% | Activity (Syrian golden hamster [20]): 15.4% | Activity (Syrian golden hamster [21]): Dose-dependent effect | Activity (Syrian golden hamster [22]): 40% | Activity (Syrian golden hamster [23]): 46%

COC(=O)N(CC(=O)O)Cc1cc(OCc2nc(-c3ccc(F)cc3)oc2C)ccc1F
EC50 [1]: 14.5 nM | Intrinsic activity [2]: > 50% | Ratio EC50 (HEK293): 691 | EC50 [3]: 10000 nM

Source: ChEMBL document CHEMBL3826929, “Discovery and Preclinical Evaluation of BMS-711939, an Oxybenzylglycine Based PPARα Selective Agonist” (ACS Med Chem Lett, 2016)
